Experimental data taken from patent US20240173232A1, “COSMETIC COMPOSITION COMPRISING CARNITINE-SALICYLATE AS ACTIVE INGREDIENT” (LG HOUSEHOLD & HEALTH CARE LTD., priority 2021, published 2024).

Experiments:
pig back skin = assay: In vitro exfoliation efficacy (detached keratinocytes from pig back skin); conditions: 16 hours, n=5
Experimental: The pig back skin surface was washed with phosphate buffer saline (PBS) and then cut to a certain size. Thereafter, the stratum corneum of the pig skin was exposed and placed on a 96-well plate, 100 μl of each sample was applied, and the 96-well plate was left in a constant temperature and humidity chamber for 16 hours. Thereafter, the supernatant of each sample was mixed well with a trypan blue solution in the 96-well plate to measure the number of detached keratinocytes. In order to verify the suitability of the relative dead skin cell control efficacy evaluation method used in this study, the following method was used. […] After treating the pig skin with the sample by the method described above, the number of detached keratinocytes was counted, and the number of detached keratinocytes in PHA (DL-gluconolactone) at pH 4.0 was set to 100% to evaluate the relative exfoliation efficacy. All evaluations were made at n=5 to secure reliability through repeated results.

Raw 264.7 cells [1] = assay: NO production inhibition in LPS-treated Raw 264.7 cells (GRIESS method); assay type: cell-based, rat; conditions: LPS 500 ng/ml
Experimental: The anti-inflammatory effect of carnitine-salicylate (CA-SA) was confirmed experimentally.
In order to evaluate the efficacy of relieving inflammation caused by external stimuli in vitro, an experiment was performed by the GRIESS method using Raw 264.7 cells (ATCC number: CRL-2788), which are rat macrophage cell line, to evaluate the inhibition of NO production after treatment with lipopolysaccharide (LPS, Sigma Aldrich, USA). […] After removing the medium and performing starvation with a serum-free medium for 12 hours, the test material was treated at 0.1 to 100 ppm for 30 minutes, and then LPS was added at a concentration of 500 ng/ml and the cells were further cultured for 18 hours. After culturing, the supernatant was taken and transferred to a 96-well plate, GRIESS reagent was added and reacted at room temperature for 15 minutes, and absorbance at 540 nm was measured using an ELISA reader.

[2] = tested on: fibroblasts obtained from human skin tissue; assay: MTT cytotoxicity assay, human fibroblasts; conditions: 24 hours
Experimental: (§1) The cytotoxicity of carnitine-salicylate (CA-SA) was evaluated by 3-(4,5-dimethythiazol-2-yl)-2,5-diphenyl tetrazolium bromide (MTT) assay. […] After removing the medium and adding each sample to a medium without FBS and incubating for 24 hours, the medium was removed, an MTT solution was added at a concentration of […], and reacted at 37° C. for 3 hours. The unreacted MTT solution was removed, and 100 μl of DMSO was added to dissolve the formed reaction product, and then absorbance was measured at 540 nm to confirm the cytotoxicity.
(§2) The cytotoxicity of salicylate, carnitine, and carnitine-salicylate (CA-SA) was evaluated by treating Raw 264.7 cells, which are rat macrophages, and human fibroblasts with the material. As a Raw 264.7 cell is a representative cell used to measure NO inhibitory efficacy in anti-inflammatory efficacy evaluations, its cytotoxicity was evaluated, and cytotoxicity with respect to fibroblasts was evaluated in order to confirm the toxicity that may be induced when the material is included in cosmetics and be repeatedly applied to the skin.

Raw 264.7 cells [3] = assay: MTT cytotoxicity assay, Raw 264.7 cells; conditions: 24 hours
Experimental: as §1, §2

[4] = 2% (mixture 1% + 1%), pH 5.5, relative to 10% gluconolactone pH 4.0 = 100%

**Q.** With O=C1O[C@H](CO)[C@@H](O)[C@H](O)[C@H]1O (racemic) [Gloconolactone, DL-gluconolactone] as the molecule, how does the “Exfoliation rate (%)” value (pig back skin; 10%, pH 4, positive control set to 100%) read?
**A.** The value was 100.0%.

**Q.** What about the “Exfoliation rate (%)” value (pig back skin; 10%, pH 6, relative to gluconolactone pH 4.0 = 100%) of the same molecule?
**A.** Its value is 32.0%.

**Q.** What does the source list for C[N+](C)(C)CC(O)CC(=O)[O-] (centres unmarked) [CA, 4-trimethylamino-3-hydroxybutyric acid]?
**A.** Exfoliation rate (%) (pig back skin; [4]): 55.2%; inhibition at 10 ppm (Raw 264.7 cells [1]; Mus musculus, RAW264.7, 10 ppm (mixture 10 ppm + 10 ppm), 18 hours, read-out: NO inhibition rate): 0%

**Q.** With CC(=O)O.CNC(=N)NCCC[C@H](N)C(=O)O [L-MMMA, NG-monomethyl-L-arginine acetate] as the molecule, how does the NO inhibition rate (Raw 264.7 cells [1]; positive control) read?
**A.** Its NO inhibition rate is 62.2%.

**Q.** What does the source list for O=C(O)c1ccccc1O [SA, salicylate]?
**A.** Exfoliation rate (%) (pig back skin; [4]): 19.2%; cell viability ([2]; 50 ppm): 94.83%; cell viability ([2]; 100 ppm): 85.36%; cell viability (Raw 264.7 cells [3]; 50 ppm): 96.16%; cell viability (Raw 264.7 cells [3]; 100 ppm): 79.74%; NO inhibition rate (Raw 264.7 cells [1]; 10 ppm (mixture 10 ppm + 10 ppm), 18 hours): 16.4%
